These results are taken from EPA's ToxValDB 9.5 (doi:10.2903/j.efsa.2010.1704).

Converted amounts (≈) assume the structure as drawn.

Data set [1] relates to Typhlodromus pyri. Particulars: acute; duration: 7 days; mortality.
Data set [2] relates to Oryctolagus sp. As to conditions: reproduction developmental; body weight.
Data set [3] deals with Apis mellifera. As to conditions: acute; duration: 48 hours; oral; unspecified; mortality.
Data set [4] deals with Anas platyrhynchos. As to conditions: oral, mortality.
Data set [5] deals with Canidae. As to conditions: oral, Dog Other, organ weight.
In data set [6] the test system is Pimephales promelas. As to conditions: chronic/long-term; duration: 35 days; growth.
For data set [7], the system named is Oncorhynchus mykiss. Particulars: acute; duration: 96 hours; mortality.
Data set [8] has as its system Colinus virginianus. Particulars: acute, oral, mortality.
Data set [9] has as its system Rattus norvegicus.
Data set [10] concerns Daphnia magna. Particulars: chronic/long-term; duration: 21 days; reproduction.
Data set [11] has as its system Coturnix japonica. Particulars: reproduction developmental.
In data set [12] the test system is Tagia sp.

Turning to `Clc1ccc(C2(Cn3cncn3)CC(Br)CO2)c(Cl)c1` (stereo not given) [Bromuconazole], in [1], the LEL was 260 g/ha. Besides, the NOEL in data set [2] came to 12.5 mg/kg-day; in data set [9] (chronic, histopathology: nonneoplastic), 13.8 mg/kg-day; in data set [9] (reproduction developmental, body weight), 1.3 mg/kg-day. In addition, the LD50 is above 100 µg/piece in data set [3]; above 2150 mg/kg-day in data set [4] (acute, unspecified); above 2150 mg/kg-day in data set [8]; 328 mg/kg-day in [9] (acute, oral, F, mortality). The LC50 was above 684 mg/kg-day in data set [4] (short-term, feed); 1.7 mg/L (≈ 4.51 µM) in data set [7]; above 778 mg/kg-day in data set [8] (diet); above 1000 mg/kg in data set [12] (acute, duration: 14 days, mortality). Further, the no observed adverse effect level (NOAEL) in data set [5] (chronic, duration: 1 years) came out at 2.5 mg/kg-day; in data set [5] (subchronic, duration: 90 days), 2.5 mg/kg-day; in data set [9] (chronic, duration: 2 years, oral, diet, histopathology: nonneoplastic) it was 0.88 mg/kg-day; in data set [9] (developmental, development), 10 mg/kg-day. Moreover, the NOEC in data set [6] was determined as 0.065 mg/L; in data set [10], 0.02 mg/L; in data set [11] it was 26.5 mg/kg-day; in [12] (chronic/long-term, duration: 56 days), 37.2 mg/kg.

For orientation: NOAEL means the highest dose or exposure tested at which no adverse effect was seen.
